The numbers were not newly measured in article PMC5493349, “Quaternary structure is an essential component that contributes to the sophisticated allosteric regulation mechanism in a key enzyme from Mycobacterium tuberculosis” (PLoS ONE, 2017), which cites them from elsewhere.

Conditions in all cases: cited from earlier work
The target of data set [1] is T1, wild-type MtuDAH7PS (Mycobacterium tuberculosis, UniProt O53512).
Data set [2] addresses T1, wild-type MtuDAH7PS. This is another data set of the same source.
The target of data set [3] is T1, wild-type MtuDAH7PS. This is another data set of the same source.

T1 sequence (O53512 whole entry): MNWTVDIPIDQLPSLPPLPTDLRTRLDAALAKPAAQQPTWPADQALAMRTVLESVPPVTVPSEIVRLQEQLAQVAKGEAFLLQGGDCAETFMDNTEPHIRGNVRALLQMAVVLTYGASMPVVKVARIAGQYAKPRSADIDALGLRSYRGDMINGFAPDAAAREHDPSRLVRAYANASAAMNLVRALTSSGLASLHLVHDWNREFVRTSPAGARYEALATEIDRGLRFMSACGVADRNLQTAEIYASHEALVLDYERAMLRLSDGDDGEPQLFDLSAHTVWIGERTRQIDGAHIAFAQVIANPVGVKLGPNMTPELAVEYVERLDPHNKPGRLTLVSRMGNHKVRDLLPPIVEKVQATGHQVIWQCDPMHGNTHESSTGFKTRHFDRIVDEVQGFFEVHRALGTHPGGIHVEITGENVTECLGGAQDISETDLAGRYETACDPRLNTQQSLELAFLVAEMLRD

`N[C@@H](Cc1c[nH]c2ccccc12)C(=O)O` [Trp, L-Trp]: at wild-type MtuDAH7PS [1], the “inhibition of wild type MtuDAH7PS by Trp alone” value was “not inhibitory”. The “reduction in Kd of Trp after pre-incubation with Phe” value at wild-type MtuDAH7PS [2] is recorded as 4 fold. Turning to `O=C[C@H](O)[C@H](O)COP(=O)(O)O` [E4P, erythrose 4-phosphate], the E4P0.5 on wild-type MtuDAH7PS [3] was 382 µM.
